Measured values taken from patent US11123355B2, “Antiviral benzyl-amine phosphodiamide compounds” (Merck Sharp & Dohme Corp., priority 2016, dated 2021).
Read-outs that look alike come from different tables or passages of the source.

Test system: HIV-1 (H9/IIB strain)
Test: Multiple Round HIV-1 Infection Assay (Viking Assay) in MT4-GFP cells
Assay type: cell-based
Details: inhibition of reproductive ratio R0
Procedure: Assessing antiviral potency in a Multiple Round HIV-1 Infection Assay (Viking Assay) The antiviral activity of the tenofovir prodrugs of the Examples herein was assessed in an assay that measures the rate of replication of HIV in cell culture, termed the Viking assay (VIral KINetics in Green cells) and performed as follows. HIV-1 replication was monitored using MT4-gag-GFP clone D3 (hereafter designated MT4-GFP), which are MT-4 cells modified to harbor a GFP reporter gene, the expression of which is dependent on the HIV-1 expressed proteins tat and rev. Productive infection of an MT4-GFP cell with HIV-1 results in GFP expression approximately 24 h post-infection. MT4-GFP cells were maintained at 37° C./5% CO2/90% relative humidity in RPMI 1640 supplemented with 10/o fetal bovine serum, 100 U/ml penicillin/streptomycin, and 400 μg/ml G418 to maintain the reporter gene. For infections, MT4-GFP cells were placed in the same medium lacking G418 and infected overnight with HIV-1 (H9/IIB strain) virus at an approximate multiplicity of infection of 0.01 in the same incubation conditions. Cells were then washed and re-suspended in either RPMI 1640 supplemented with 10% or 50% normal human serum (NHS) at 1.6×10^5 cells/mL (10% NHS or 50% NHS, respectively). Compound plates were prepared by dispensing compounds dissolved in DMSO into wells of 384 well poly-D-lysine-coated plates (0.2 μl/well) using an ECHO acoustic dispenser. Each compound was tested in a 10-point serial 3-fold dilution (typical final concentrations: 8.4 μM-0.42 nM). Controls included no inhibitor (DMSO only) and a combination of three antiviral agents (efavirenz, indinavir, an in-house integrase strand transfer inhibitor at final concentrations of 4 μM each). Cells were added (50 μL/well) to compound plates and the infected cells were maintained at 37° C./5% CO2/90% relative humidity.
Infected cells were quantified at two time points, ˜48 h and ˜72 h post-infection, by counting the number of green cells in each well using an Acumen eX3 scanner. The increase in the number of green cells over ˜24 h period gives the reproductive ratio, R0, which is typically 5-15 and has been shown experimentally to be in logarithmic phase (data not shown). Inhibition of R0 is calculated for each well, and IC50s determined by non-linear 4-parameter curve fitting.

[1] = MT4-GFP cells infected with HIV-1, 10% normal human serum, read-out: Viking, IC50 (10% NHS)
[2] = MT4-GFP cells infected with HIV-1, 50% normal human serum, read-out: Viking, IC50 (50% NHS)

SMILES	IC50 [1]	IC50 [2]
CCCOC(=O)C(C)(C)NP(=O)(CO[C@H](C)Cn1cnc2c(N)ncnc21)N[C@H](c1cccc(OC)c1)C(F)(F)F (stereo partly drawn) [Example 25B, propyl 2-(((R)-((((R)-1-(6-amino-9H-purin-9-yl)propan-2-yl)oxy)methyl)(((R)-2,2,2-trifluoro-1-(3-methoxyphenyl)ethyl)amino)phosphoryl)a-mino)-2-methylpropanoate and propyl 2-(((S)-((((R)-1-(6-amino-9H-purin-9-yl)propan-2-yl)oxy)methyl)(((R)-2,2,2-trifluoro-1-(3-methoxyphenyl)ethyl)amino)phosphoryl)a-mino)-2-methylpropanoate]	15 nM	97 nM
CCCOC(=O)C(C)(C)N[P@@](=O)(CO[C@H](C)Cn1cnc2c(N)ncnc21)N[C@@H](c1cccc(OC)c1)C(F)(F)F [Example 28A, propyl 2-(((R)-((((R)-1-(6-amino-9H-purin-9-yl)propan-2-yl)oxy)methyl)(((S)-2,2,2-trifluoro-1-(3-methoxyphenyl)ethyl)amino)phosphoryl)a-mino)-2-methylpropanoate and propyl 2-(((S)-((((R)-1-(6-amino-9H-purin-9-yl)propan-2-yl)oxy)methyl)(((S)-2,2,2-trifluoro-1-(3-methoxyphenyl)ethyl)amino)phosphoryl)a-mino)-2-methylpropanoate]	29 nM	330 nM
CCCOC(=O)C(C)(C)N[P@@](=O)(CO[C@H](C)Cn1cnc2c(N)ncnc21)N[C@@H](c1cccc(OC)c1)C(F)(F)F [Example 28B, propyl 2-(((R)-((((R)-1-(6-amino-9H-purin-9-yl)propan-2-yl)oxy)methyl)(((S)-2,2,2-trifluoro-1-(3-methoxyphenyl)ethyl)amino)phosphoryl)a-mino)-2-methylpropanoate and propyl 2-(((S)-((((R)-1-(6-amino-9H-purin-9-yl)propan-2-yl)oxy)methyl)(((S)-2,2,2-trifluoro-1-(3-methoxyphenyl)ethyl)amino)phosphoryl)a-mino)-2-methylpropanoate]	17 nM	120 nM
CCCOC(=O)C(C)(C)N[P@@](=O)(CO[C@H](C)Cn1cnc2c(N)ncnc21)N[C@H](C)c1ccc(Cl)cc1C [Example 29A, propyl 2-(((R)-((((R)-1-(6-amino-9H-purin-9-yl)propan-2-yl)oxy)methyl)(((R)-1-(4-chloro-2-methylphenyl)ethyl)amino)phosphoryl)ami-no)-2-methylpropanoate and propyl 2-(((S)-((((R)-1-(6-amino-9H-purin-9-yl)propan-2-yl)oxy)methyl)(((R)-1-(4-chloro-2-methyphenyl)ethyl)amino)phosphoryl)ami-no)-2-methylpropanoate]	260 nM	2300 nM
CCCOC(=O)C(C)(C)NP(=O)(CO[C@H](C)Cn1cnc2c(N)ncnc21)N[C@@H](C)c1ccc(Cl)cc1C (stereo partly drawn) [Example 30A, propyl 2-(((R)-((((R)-1-(6-amino-9H-purin-9-yl)propan-2-yl)oxy)methyl)(((S)-1-(4-chloro-2-methylphenyl)ethyl)amino)phosphoryl)ami-no)-2-methylpropanoate and propyl 2-(((S)-((((R)-1-(6-amino-9H-purin-9-yl)propan-2-yl)oxy)methyl)(((S)-1-(4-chloro-2-methylphenyl)ethyl)amino)phosphoryl)ami-no)-2-methylpropanoate]	24 nM	350 nM
CCCOC(=O)C(C)(C)NP(=O)(CO[C@H](C)Cn1cnc2c(N)ncnc21)N[C@@H](C)c1ccc(Cl)cc1C (stereo partly drawn) [Example 30B, propyl 2-(((R)-((((R)-1-(6-amino-9H-purin-9-yl)propan-2-yl)oxy)methyl)(((S)-1-(4-chloro-2-methylphenyl)ethyl)amino)phosphoryl)ami-no)-2-methylpropanoate and propyl 2-(((S)-((((R)-1-(6-amino-9H-purin-9-yl)propan-2-yl)oxy)methyl)(((S)-1-(4-chloro-2-methylphenyl)ethyl)amino)phosphoryl)ami-no)-2-methylpropanoate]	56 nM	750 nM
CCCOC(=O)C(C)(C)NP(=O)(CO[C@H](C)Cn1cnc2c(N)ncnc21)N[C@H](C)c1ccc(C#N)cc1 (stereo partly drawn) [Example 31A, propyl 2-(((R)-((((R)-1-(6-amino-9H-purin-9-yl)propan-2-yl)oxy)methyl)(((R)-1-(4-cyanophenyl)ethyl)amino)phosphoryl)ami-no)-2-methylpropanoate and propyl 2-(((S)-((((R)-1-(6-amino-9H-purin-9-yl)propan-2-yl)oxy)methyl)(((R)-1-(4-cyanophenyl)ethyl)amino)phosphoryl)ami-no)-2-methylpropanoate]	83 nM	770 nM
CCCOC(=O)C(C)(C)NP(=O)(CO[C@H](C)Cn1cnc2c(N)ncnc21)N(C)Cc1ccc(C(C)C)cc1 (stereo partly drawn) [Example 32A, propyl 2-(((R)-((((R)-1-(6-amino-9H-purin-9-yl)propan-2-yl)oxy)methyl)((4-isopropylbenzyl)(methyl)amino)phos-phoryl)amino)-2-methylpropanoate and propyl 2-(((S)-((((R)-1-(6-amino-9H-purin-9-yl)propan-2-yl)oxy)methyl)((4-isopropylbenzyl)(methyl)amino)phos-phoryl)amino)-2-methylpropanoate]	1.7 nM	6.7 nM
CCCOC(=O)C(C)(C)NP(=O)(CO[C@H](C)Cn1cnc2c(N)ncnc21)N(C)Cc1ccc(C(C)C)cc1 (stereo partly drawn) [Example 32B, propyl 2-(((R)-((((R)-1-(6-amino-9H-purin-9-yl)propan-2-yl)oxy)methyl)((4-isopropylbenzyl)(methyl)amino)phos-phoryl)amino)-2-methylpropanoate and propyl 2-(((S)-((((R)-1-(6-amino-9H-purin-9-yl)propan-2-yl)oxy)methyl)((4-isopropylbenzyl)(methyl)amino)phos-phoryl)amino)-2-methylpropanoate]	10 nM	41 nM
CCCOC(=O)C(C)(C)N[P@](=O)(CO[C@H](C)Cn1cnc2c(N)ncnc21)N(C)[C@H](C)c1ccc(OC(F)(F)F)cc1 [Example 33A, propyl 2-(((R)-((((R)-1-(6-amino-9H-purin-9-yl)propan-2-yl)oxy)methyl)(methyl((R)-1-(4-(trifluoromethoxy)phenyl)ethyl)amino)phos-phoryl)amino)-2-methylpropanoate and propyl 2-(((S)-((((R)-1-(6-amino-9H-purin-9-yl)propan-2-yl)oxy)methyl)(methyl((R)-1-(4-(trifluoromethoxy)phenyl)ethyl)amino)phos-phoryl)amino)-2-methylpropanoate]	25 nM	84 nM
CC(C)OC(=O)C(C)(C)NP(=O)(CO[C@H](C)Cn1cnc2c(N)ncnc21)N[C@H](C)c1ccc(OC(F)(F)F)cc1 (stereo partly drawn) [Example 34A, isopropyl 2-(((R)-((((R)-1-(6-amino-9H-purin-9-yl)propan-2-yl)oxy)methyl)(((R)-1-(4-(trifluoromethoxy)phenyl)ethyl)amino)phos-phoryl)amino)-2-methylpropanoate and isopropyl 2-(((S)-((((R)-1-(6-amino-9H-purin-9-yl)propan-2-yl)oxy)methyl)(((R)-1-(4-(trifluoromethoxy)phenyl)ethyl)amino)phos-phoryl)amino)-2-methylpropanoate]	760 nM	4200 nM
CC(C)OC(=O)C(C)(C)N[P@@](=O)(CO[C@H](C)Cn1cnc2c(N)ncnc21)N[C@H](C)c1ccc(Cl)cc1 [Example 35A, isopropyl 2-(((R)-((((R)-1-(6-amino-9H-purin-9-yl)propan-2-yl)oxy)methyl)(((R)-1-(4-chlorophenyl)ethyl)amino)phosphoryl)ami-no)-2-methylpropanoate and isopropyl 2-(((S)-((((R)-1-(6-amino-9H-purin-9-yl)propan-2-yl)oxy)methyl)(((R)-1-(4-chlorophenyl)ethyl)amino)phosphoryl)ami-no)-2-methylpropanoate]	280 nM	1600 nM
CC(C)OC(=O)C(C)(C)N[P@@](=O)(CO[C@H](C)Cn1cnc2c(N)ncnc21)NC1(c2ccc(Cl)cc2)CC1 [Example 37A, isopropyl 2-(((R)-((((R)-1-(6-amino-9H-purin-9-yl)propan-2-yl)oxy)methyl)((1-(4-chlorophenyl)cyclopropyl)amino)phos-phoryl)amino)-2-methylpropanoate and isopropyl 2-(((S)-((((R)-1-(6-amino-9H-purin-9-yl)propan-2-yl)oxy)methyl)((1-(4-chlorophenyl)cyclopropyl)amino)phos-phoryl)amino)-2-methylpropanoate]	110 nM	720 nM
